Test results as given in patent US11052092B2, “N-{[2-(piperidin-1-yl)phenyl](phenyl)methyl}-2-(3-oxo-3,4-dihydro-2H-1,4-benzoxazin-7-yl)acetamide derivatives and related compounds as ROR-gamma modulators for treating autoimmune diseases” (Genfit, priority 2017, dated 2021).

Experiments:
[1] = molecular target: T1, RORγt ligand-binding domain (RORγt-LBD) (Homo sapiens, UniProt P51449); experiment: Time-resolved FRET (TR-FRET) RORγt coactivator assay; conditions: GST-RORγ-LBD, biotinylated RIP140 peptide, 2 hours at room temperature
T1 construct: 20 nM recombinantly expressed RORγ-LBD fused to GST
T1 sequence (P51449 269-508 limits assumed): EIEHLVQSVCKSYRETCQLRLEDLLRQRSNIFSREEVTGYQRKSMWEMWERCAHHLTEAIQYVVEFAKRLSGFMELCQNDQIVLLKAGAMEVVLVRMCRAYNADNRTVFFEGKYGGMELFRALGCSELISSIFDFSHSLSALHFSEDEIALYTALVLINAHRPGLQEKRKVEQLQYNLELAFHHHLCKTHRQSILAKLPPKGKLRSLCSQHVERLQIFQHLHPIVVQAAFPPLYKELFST
Procedure, shortened: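 GST-tagged RORγt-LBD (20 nM) with 30 nM biotinylated RIP140-derived peptide, streptavidin-terbium and d2 anti-GST in CHAPS buffer (1 mM DTT, 2 mM EDTA, 0.1% BSA), 1% DMSO. Compounds at 0.3 nM–30 μM final, equilibrated 2 h, room temperature, dark. Coactivator displacement lowers the TR-FRET signal; IC50 (μM) and Emax (%) reported.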

human RORγt = molecular target: T2, human RORγt (Homo sapiens, UniProt P51449); experiment: RORE Luciferase/RORγt transactivation assay; format: cell-based; conditions: COS-7 cells transfected with human IL-17 promoter luciferase reporter and RORγt plasmid; 20 h with compound; read-out: IC50, RORγt activity inhibition
T2 construct: the full-length cDNA of human RORγt; expressed in transfected cells; host or cells: COS-7 (monkey kidney)
T2 sequence (P51449 1-497 isoform P51449-2): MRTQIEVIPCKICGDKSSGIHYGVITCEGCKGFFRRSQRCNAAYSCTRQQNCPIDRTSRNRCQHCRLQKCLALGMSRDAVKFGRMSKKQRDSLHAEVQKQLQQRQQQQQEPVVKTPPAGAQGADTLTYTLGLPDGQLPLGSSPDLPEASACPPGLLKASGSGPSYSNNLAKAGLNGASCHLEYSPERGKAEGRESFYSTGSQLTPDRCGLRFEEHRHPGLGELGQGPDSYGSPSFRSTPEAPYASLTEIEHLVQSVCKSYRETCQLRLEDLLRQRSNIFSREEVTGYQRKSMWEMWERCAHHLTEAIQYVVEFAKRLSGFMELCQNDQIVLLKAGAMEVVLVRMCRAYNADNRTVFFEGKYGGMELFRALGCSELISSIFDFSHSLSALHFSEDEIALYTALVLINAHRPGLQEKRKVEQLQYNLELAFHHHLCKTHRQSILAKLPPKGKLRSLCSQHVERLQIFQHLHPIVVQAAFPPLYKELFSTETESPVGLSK
Procedure, shortened: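 COS-7 cells were transiently co-transfected with a human IL-17 promoter (RORE/CNS)–luciferase reporter and a RORγt expression plasmid, then seeded at 10000 cells/well in serum-free, phenol red-free DMEM. Compounds were added at 0.3% DMSO final. Luciferase was read with Steady-Glo, and IC50 and Emax were derived.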

[2] = tested on: IMQ induced psoriasis in mice; experiment: Imiquimod (IMQ) induced psoriasis study, cumulative clinical score; format: in vivo, C57BL/6 female mice
Description: 8-10 weeks C57BL/6 female mice received a daily topical dose of 62.5 mg/mouse IMQ cream (Aldara® cream 5%; 3M pharmaceuticals, Sweden) on the shaved back and the right ear for 7 consecutive days. Control mice were treated similarly with a control vehicle cream (Vaseline). Test compound (Cpd 24) was orally administered daily from day 0 to day 7 at 3 mg/mL (30 mg/kg). Test compound was given 8 hours before IMQ application. Mice were killed at day 7, 4 h after the last test compound treatment to analyse skin inflammation parameters.
The severity of inflammation of the back skin was determined using the following criteria. An objective scoring system was developed based on the clinical Psoriasis Area and Severity Index (PASI), except that for the mouse model the affected skin area is not taken into account in the overall score. Erythema, scaling, and thickening were scored independently on a scale from 0 to 4: 0: none; 1: slight; 2: moderate; 3: marked; 4: severe. The cumulative score (erythema plus scaling plus thickening) served as a measure of the severity of inflammation (scale 0-12).
Statistical evaluation of differences between the experimental groups was determined by using two-way Anova followed by a Bonferroni post test. *** p<0.001, IMQ-Vehicle compared with treatment.

IC50 [1]: < 10 nM
IC50 (human RORγt): 10 to 100 nM
SMILES: Cc1ccc(C(NC(=O)Cc2ccc3c(c2)CC(=O)N3)c2ccc(C)o2)c(N2CCCCC2)c1 (stereo not shown) [Cpd. 24, N-{[4-methyl-2-(piperidin-1-yl)phenyl](5-methylfuran-2-yl)methyl}-2-(2-oxo-2,3-dihydro-1H-indol-5-yl)acetamide]
adverse effect ([2]; after test compound administration, 30 mg/kg orally daily day 0 to day 7): no adverse effect was observed
cumulative score (erythema plus scaling plus thickening) ([2]; orally 30 mpk, day 5, compared to control treatment): significant decrease
